A word on the IC50: it is the concentration at which inhibition is half-maximal. One may read the EC50 as the midpoint of the concentration-response curve. Higher therefore signals lower potency in that assay. What is called inhibition is the relative decrease from the control value, in per cent.

Read-outs that look alike come from different tables or passages of the source.

One experiment has as its target T1, Cannabinoid CB1 Receptor (Homo sapiens, UniProt P21554).
T1 construct: expressed in transfected cells
The experiment in a line: Binding assay for CB1 agonists or inverse agonists (radioligand competition, membranes of transfected SK-N-MC cells). Background: In a radioligand displacement assay an active substance lowers the binding of a labelled ligand.

A further experiment addresses CB1 receptor (human) (Homo sapiens, UniProt P21554). The experiment in a line: cell-based. The note with it: for CB1 Receptor Functional Activity (change in functional activity, CRE β-gal): one compound concentration, β-galactosidase activity relative to vehicle treated cells.
Another experiment concerns the target T2, Cannabinoid CB2 Receptor (Homo sapiens, UniProt P34972).
T2 construct: expressed in transfected cells
Description: Binding assay for CB2 agonists or inverse agonists (radioligand competition, membranes of transfected SK-N-MC cells). The note with it: for inhibition at 0.2 µM: read-out: Cannabinoid CB2 Receptor Binding percent inhibition; for IC50: human CB2, SK-N-MC cell membranes, calculated by linear regression from percent inhibition at various concentrations, read-out: Cannabinoid CB2 Receptor Binding IC50.

T1 sequence (P21554 whole entry): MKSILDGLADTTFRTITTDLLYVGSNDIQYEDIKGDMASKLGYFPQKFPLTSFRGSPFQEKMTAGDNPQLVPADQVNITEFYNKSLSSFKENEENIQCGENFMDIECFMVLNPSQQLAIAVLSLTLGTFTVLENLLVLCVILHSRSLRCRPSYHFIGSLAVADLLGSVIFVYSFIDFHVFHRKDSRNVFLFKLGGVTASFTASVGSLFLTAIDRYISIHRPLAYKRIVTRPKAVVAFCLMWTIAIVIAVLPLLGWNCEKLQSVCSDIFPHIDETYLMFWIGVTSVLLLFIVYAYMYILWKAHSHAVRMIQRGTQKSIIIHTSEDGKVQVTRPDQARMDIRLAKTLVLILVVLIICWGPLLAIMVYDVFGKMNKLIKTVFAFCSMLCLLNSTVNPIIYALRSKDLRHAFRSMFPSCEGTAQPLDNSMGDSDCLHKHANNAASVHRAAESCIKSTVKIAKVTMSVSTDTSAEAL
Sequence of CB1 receptor (human) (P21554 whole entry): as above
T2 sequence (P34972 whole entry): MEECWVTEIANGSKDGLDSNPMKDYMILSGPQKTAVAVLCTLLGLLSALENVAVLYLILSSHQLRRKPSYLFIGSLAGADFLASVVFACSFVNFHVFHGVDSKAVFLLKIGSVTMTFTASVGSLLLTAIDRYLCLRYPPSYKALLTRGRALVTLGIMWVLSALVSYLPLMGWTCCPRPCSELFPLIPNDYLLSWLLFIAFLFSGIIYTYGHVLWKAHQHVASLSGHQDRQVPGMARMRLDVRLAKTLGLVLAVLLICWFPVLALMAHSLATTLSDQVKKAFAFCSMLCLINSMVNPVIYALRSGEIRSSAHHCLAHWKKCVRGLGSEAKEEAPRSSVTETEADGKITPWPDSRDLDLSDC

The molecule `COC(=O)N1C/C(=C\c2ccc(F)cc2)c2c(c(C(=O)NN3CC4CCCC4C3)nn2-c2ccc(Cl)cc2)C1` (stereo not drawn) [Cpd 87, (7E)-1-(4-chloro-phenyl)-7-(4-fluoro-benzylidene)-3-(hexahydro-cyclopenta[c]pyrrol-2-ylcarbamoyl)-1,4,6,7-tetrahydro-pyrazolo[4,3-c]pyridine-5-carboxylic acid methyl ester] displayed an IC50 on Cannabinoid CB1 Receptor of 50 nM. This molecule also came in with a concentration for a half-maximal effect (EC50) at CB1 receptor (human) of 1 nM. In addition, the inhibition at 0.2 µM on Cannabinoid CB2 Receptor is 16%.

`COc1ccc(/C=C2\CN(C(C)=O)Cc3c(C(=O)NN4CCCCC4)nn(-c4ccc(Cl)cc4Cl)c32)cc1` [Cpd 54, (7E)-5-acetyl-1-(2,4-dichloro-phenyl)-7-(4-methoxy-benzylidene)-4,5,6,7-tetrahydro-1H-pyrazolo[4,3-c]pyridine-3-carboxylic acid piperidin-1-ylamide] gave an IC50 at Cannabinoid CB1 Receptor of 40 nM. Also, at CB1 receptor (human), the EC50 was 5 nM. In addition, at Cannabinoid CB2 Receptor, the inhibition at 0.2 µM was 24%.

The molecule `CCOC(=O)CN1C/C(=C\c2ccc(OC)cc2)c2c(c(C(=O)NN3CCCCC3)nn2-c2ccc(Cl)cc2Cl)C1` [Cpd 59, (7E)-[1-(2,4-dichloro-phenyl)-7-(4-methoxy-benzylidene)-3-(piperidin-1-ylcarbamoyl)-1,4,6,7-tetrahydro-pyrazolo[4,3-c]pyridin-5-yl]-acetic acid ethyl ester] registered an IC50 at Cannabinoid CB1 Receptor of 40 nM. The molecule further had a 50% effective concentration (EC50) on CB1 receptor (human) of 30 nM. In addition, on Cannabinoid CB2 Receptor, the inhibition at 0.2 µM turned out to be 23%.

Molecule `COc1ccc(/C=C2\CNCc3c(C(=O)NC(C)c4ccccn4)nn(-c4ccc(Cl)cc4Cl)c32)cc1` (stereo not drawn) [Cpd 49, (7E)-1-(2,4-dichloro-phenyl)-7-(4-methoxy-benzylidene)-4,5,6,7-tetrahydro-1H-pyrazolo[4,3-c]pyridine-3-carboxylic acid (1-pyridin-2-yl-ethyl)-amide] registered an IC50 on Cannabinoid CB1 Receptor of 100 nM. Moreover, at CB1 receptor (human), the half-maximal effective concentration (EC50) came out at 1 nM. In addition, the inhibition at 0.2 µM on Cannabinoid CB2 Receptor came out at 19%.

`COC(=O)N1C/C(=C\c2ccc(F)cc2)c2c(c(C(=O)N[C@H](C)c3ccccc3)nn2-c2ccc(Cl)cc2)C1` [Cpd 67, (7E)-1-(4-chloro-phenyl)-7-(4-fluoro-benzylidene)-3-[(1R)-1-phenyl-ethylcarbamoyl]-1,4,6,7-tetrahydro-pyrazolo[4,3-c]pyridine-5-carboxylic acid methyl ester] came in with an IC50 at Cannabinoid CB1 Receptor of 5 nM. This molecule returned a concentration giving a half-maximal response (EC50) on CB1 receptor (human) of 1 nM. At Cannabinoid CB2 Receptor, the inhibition at 0.2 µM stood at 19%.

`CCNC(=O)N1C/C(=C\c2ccc(F)cc2)c2c(c(C(=O)N[C@H](C)C3CCCCC3)nn2-c2ccc(Cl)cc2Cl)C1` [Cpd 32, (7E)-1-(2,4-dichloro-phenyl)-7-(4-fluoro-benzylidene)-1,4,6,7-tetrahydro-pyrazolo[4,3-c]pyridine-3,5-dicarboxylic acid 3-{[(1R)-1-cyclohexyl-ethyl]-amide} 5-ethylamide] had a concentration for half-maximal inhibition (IC50) at Cannabinoid CB1 Receptor of 20 nM. The molecule also yielded a concentration for a half-maximal effect (EC50) on CB1 receptor (human) of 3 nM. In addition, on Cannabinoid CB2 Receptor, the inhibition at 0.2 µM turned out to be 6%.

Turning to `COc1ccc(/C=C2\CN(S(C)(=O)=O)Cc3c(C(=O)NN4CCCCC4)nn(-c4ccc(Cl)cc4Cl)c32)cc1` [Cpd 53, (7E)-1-(2,4-dichloro-phenyl)-5-methanesulfonyl-7-(4-methoxy-benzylidene)-4,5,6,7-tetrahydro-1H-pyrazolo[4,3-c]pyridine-3-carboxylic acid piperidin-1-ylamide], at Cannabinoid CB1 Receptor, the IC50 came to 30 nM. The same molecule returned an EC50 at CB1 receptor (human) of 5 nM. On Cannabinoid CB2 Receptor, the inhibition at 0.2 µM was determined as 29%.

As for `COc1ccc(/C=C2\CN(C(C)=O)Cc3c(C(=O)N[C@H](C)c4ccccn4)nn(-c4ccc(Cl)cc4Cl)c32)cc1` [Cpd 97, (7E)-5-acetyl-1-(2,4-dichloro-phenyl)-7-(4-methoxy-benzylidene)-4,5,6,7-tetrahydro-1H-pyrazolo[4,3-c]pyridine-3-carboxylic acid [(1R)-1-pyridin-2-yl-ethyl]-amide], the IC50 at Cannabinoid CB1 Receptor was 7 nM. The molecule also had an EC50 on CB1 receptor (human) of 10 nM. For the same molecule, the inhibition at 0.2 µM at Cannabinoid CB2 Receptor (test concentration of 0.2 μM, compounds without an IC50 binding value) was 33%.

`COc1ccc(/C=C2\CNCc3c(C(=O)N[C@H](C)c4ccccc4)nn(-c4ccc(Cl)cc4Cl)c32)cc1` [Cpd 38, (7E)-1-(2,4-dichloro-phenyl)-7-(4-methoxy-benzylidene)-4,5,6,7-tetrahydro-1H-pyrazolo[4,3-c]pyridine-3-carboxylic acid [(1R)-1-phenyl-ethyl]-amide]: the 50% inhibitory concentration (IC50) on Cannabinoid CB1 Receptor worked out at 10 nM. This molecule registered a concentration giving a half-maximal response (EC50) on CB1 receptor (human) of 5 nM. For the same molecule, the inhibition at 0.2 µM at Cannabinoid CB2 Receptor was found to be 25%.

On Cannabinoid CB1 Receptor, `C[C@@H](NC(=O)c1nn(-c2ccc(Cl)cc2Cl)c2c1CN(S(C)(=O)=O)C/C2=C\c1ccc(F)cc1)c1ccccc1` [Cpd 17] returned an IC50 of 2 nM. Also, the midpoint of the response on CB1 receptor (human), the EC50, lay at 6 nM. Besides, the inhibition at 0.2 µM at Cannabinoid CB2 Receptor came to 36%.

In turn, `COc1ccc(/C=C2\CN(S(C)(=O)=O)Cc3c(C(=O)N[C@H](C)c4ccccc4)nn(-c4ccc(Cl)cc4Cl)c32)cc1` [Cpd 40, (7E)-1-(2,4-dichloro-phenyl)-5-methanesulfonyl-7-(4-methoxy-benzylidene)-4,5,6,7-tetrahydro-1H-pyrazolo[4,3-c]pyridine-3-carboxylic acid [(1R)-1-phenyl-ethyl]-amide] registered an IC50 on Cannabinoid CB1 Receptor of 2 nM. The molecule further gave a concentration for a half-maximal effect (EC50) on CB1 receptor (human) of 1 nM. For the same molecule, on Cannabinoid CB2 Receptor, the inhibition at 0.2 µM is 47%.

Take `CC12CCC(C1)C(C)(C)C2NC(=O)c1nn(C2CCCCC2)c2c1CNCC2` (stereo not drawn) [Cpd 118, 1-cyclohexyl-4,5,6,7-tetrahydro-1H-pyrazolo[4,3-c]pyridine-3-carboxylic acid (1,3,3-trimethyl-bicyclo[2.2.1]hept-2-yl)-amide]: the concentration for half-maximal inhibition (IC50) on Cannabinoid CB1 Receptor was 800 nM; at Cannabinoid CB2 Receptor it was 1800 nM. For the same molecule, the “CB1 Receptor Functional Activity (change in functional activity, CRE β-gal)” value on CB1 receptor (human) is listed as 4%.

At Cannabinoid CB1 Receptor, `C[C@@H](NC(=O)c1nn(-c2ccc(Cl)cc2Cl)c2c1CNC/C2=C\c1ccc(F)cc1)c1ccccc1` [Cpd 15, (7E)-1-(2,4-dichloro-phenyl)-7-(4-fluoro-benzylidene)-4,5,6,7-tetrahydro-1H-pyrazolo[4,3-c]pyridine-3-carboxylic acid [(1R)-1-phenyl-ethyl]-amide] displayed a half-maximal inhibitory concentration (IC50) of 10 nM. For the same molecule, at CB1 receptor (human), the 50% effective concentration (EC50) is 10 nM. At Cannabinoid CB2 Receptor, the inhibition at 0.2 µM came to 23%.

Molecule `O=C(NN1CCCCC1)c1nn(-c2ccc(Cl)cc2Cl)c2c1CNC/C2=C\c1ccc(F)cc1` [Cpd 12, (7E)-1-(2,4-dichloro-phenyl)-7-(4-fluoro-benzylidene)-4,5,6,7-tetrahydro-1H-pyrazolo[4,3-c]pyridine-3-carboxylic acid piperidin-1-ylamide] gave a half-inhibitory concentration (IC50) on Cannabinoid CB1 Receptor of 100 nM. Also, the EC50 at CB1 receptor (human) came out at 80 nM. For the same molecule, the inhibition at 0.2 µM at Cannabinoid CB2 Receptor is 5%.

In turn, `CCNC(=O)N1C/C(=C\c2ccc(OC)cc2)c2c(c(C(=O)N[C@H](C)c3ccccn3)nn2-c2ccc(Cl)cc2Cl)C1` [Cpd 98, (7E)-1-(2,4-dichloro-phenyl)-7-(4-methoxy-benzylidene)-1,4,6,7-tetrahydro-pyrazolo[4,3-c]pyridine-3,5-dicarboxylic acid 5-ethylamide 3-{[(1R)-1-pyridin-2-yl-ethyl]-amide}] yielded an IC50 on Cannabinoid CB1 Receptor of 8 nM. Besides, the EC50 at CB1 receptor (human) is 4 nM. In addition, the inhibition at 0.2 µM at Cannabinoid CB2 Receptor was 17%.

As to `C[C@@H](NC(=O)c1nn(-c2ccc(Cl)cc2Cl)c2c1CN(C(=O)OC(C)(C)C)C/C2=C\c1ccc(F)cc1)C1CCCCC1` [Cpd 8, (7E)-3-[(1R)-1-cyclohexyl-ethylcarbamoyl]-1-(2,4-dichloro-phenyl)-7-(4-fluoro-benzylidene)-1,4,6,7-tetrahydro-pyrazolo[4,3-c]pyridine-5-carboxylic acid tert-butyl ester], at Cannabinoid CB1 Receptor, the IC50 came to 60 nM. For the same molecule, on CB1 receptor (human), a half-maximal response (EC50) required 200 nM. In addition, on Cannabinoid CB2 Receptor, the inhibition at 0.2 µM was determined as 34%.

`C[C@@H](NC(=O)c1nn(-c2ccc(Cl)cc2Cl)c2c1CNC/C2=C\c1ccc(F)cc1)C1CCCCC1` [Cpd 28, (7E)-1-(2,4-dichloro-phenyl)-7-(4-fluoro-benzylidene)-4,5,6,7-tetrahydro-1H-pyrazolo[4,3-c]pyridine-3-carboxylic acid [(1R)-1-cyclohexyl-ethyl]-amide] came in with an IC50 on Cannabinoid CB1 Receptor of 20 nM. In addition, on CB1 receptor (human), a half-maximal response (EC50) required 8 nM. Further, on Cannabinoid CB2 Receptor, the inhibition at 0.2 µM is 31%.

On Cannabinoid CB1 Receptor, `COc1ccc(/C=C2\CN(C(C)=O)Cc3c(C(=O)N[C@H](C)c4ccccc4)nn(-c4ccc(Cl)cc4Cl)c32)cc1` [Cpd 42, (7E)-5-acetyl-1-(2,4-dichloro-phenyl)-7-(4-methoxy-benzylidene)-4,5,6,7-tetrahydro-1H-pyrazolo[4,3-c]pyridine-3-carboxylic acid [(1R)-1-phenyl-ethyl]-amide] gave a concentration for half-maximal inhibition (IC50) of 5 nM. On CB1 receptor (human), this molecule came in with a concentration for a half-maximal effect (EC50) of 1 nM. Further, at Cannabinoid CB2 Receptor, the inhibition at 0.2 µM amounted to 38%.

On to `CCNC(=O)N1C/C(=C\c2ccc(OC)cc2)c2c(c(C(=O)NN3CCCCC3)nn2-c2ccc(Cl)cc2Cl)C1` [Cpd 56, (7E)-1-(2,4-dichloro-phenyl)-7-(4-methoxy-benzylidene)-1,4,6,7-tetrahydro-pyrazolo[4,3-c]pyridine-3,5-dicarboxylic acid 5-ethylamide 3-piperidin-1-ylamide], for which the IC50 at Cannabinoid CB1 Receptor came out at 20 nM. Also, on CB1 receptor (human), the midpoint of the response, the EC50, lay at 7 nM. For the same molecule, the inhibition at 0.2 µM at Cannabinoid CB2 Receptor worked out at 28%.

With `CN(C)C(=O)N1CCc2c(c(C(=O)NC3C4CC5CC(C4)CC3C5)nn2C2CCCCC2)C1` (stereo not drawn) [Cpd 132, 1-cyclohexyl-1,4,6,7-tetrahydro-pyrazolo[4,3-c]pyridine-3,5-dicarboxylic acid 3-adamantan-2-ylamide 5-dimethylamide], the half-inhibitory concentration (IC50) at Cannabinoid CB1 Receptor (human CB1, SK-N-MC cell membranes, calculated by linear regression from percent inhibition at various concentrations, read-out: Cannabinoid CB1 Receptor Binding IC50) was 5500 nM; at Cannabinoid CB2 Receptor it was 200 nM. Moreover, the “CB1 Receptor Functional Activity (change in functional activity, CRE β-gal)” value on CB1 receptor (human) is listed as −42%.
